# Measurements taken from patent US4604237A, “Des-21-threonine-calcitonin” (Armour Pharmaceutical Company, priority 1984, dated 1986).
# What was measured:
# [1] = system: serum calcium concentration; assay: Biological assay of calcitonin analogs in vivo: reduction of serum calcium, 2×2 parallel line assay against synthetic salmon calcitonin standard; set-up: species or system Rats; conditions: independently determined content of the standard
# Method: The biological potency of des-21-threonine-salmon calcitonin was determined by comparing the reduction of serum calcium concentration which followed administration by graded doses of des-Thr^21 -SCT and synthetic salmon calcitonin standard. Rats were divided into four groups of seven animals, and each group was assigned at random to a dose of standard or test solution. Low and high doses were chosen from the linear portion of the dose-response curve. For the salmon calcitonin standard, the values were 0.7 and 2.1 ng. peptide/100 g. body weight (BW). This dose approximates 3 and 9 MU/100 g. BW. Peptides were given by subcutaneous injection (0.2 ml/100 g. BW) and blood was withdrawn 1 hour later for serum calcium determination. Sera are processed and analyzed within two hours of collection. […]. Results were analyzed by a 2×2 parallel line assay [Gaddum, J. H., J. Pharm. Pharmacol., 6, 345 (1953)]. The standard salmon calcitonin used was independently determined to contain greater than 4,000 IU/mg. des-Thr^21 -SCT assayed at 5355 IU/mg.
# [2] = literature values; cited from earlier work
Molecule,potency of the standard salmon calcitonin used [1],hypocalcemic potency [2]
"CC(C)C[C@H](NC(=O)[C@H](CCCCN)NC(=O)CNC(=O)[C@H](CC(C)C)NC(=O)[C@@H](NC(=O)[C@@H]1CSSC[C@H](N)C(=O)N[C@@H](CO)C(=O)N[C@@H](CC(N)=O)C(=O)N[C@@H](CC(C)C)C(=O)N[C@@H](CO)C(=O)N[C@@H]([C@@H](C)O)C(=O)N1)C(C)C)C(=O)N[C@@H](CO)C(=O)N[C@@H](CCC(N)=O)C(=O)N[C@@H](CCC(=O)O)C(=O)N[C@@H](CC(C)C)C(=O)N[C@@H](Cc1c[nH]cn1)C(=O)N[C@@H](CCCCN)C(=O)N[C@@H](CC(C)C)C(=O)N[C@@H](CCC(N)=O)C(=O)N[C@H](C(=O)N[C@@H](Cc1ccc(O)cc1)C(=O)N1CCC[C@H]1C(=O)N[C@@H](CCCNC(=N)N)C(=O)N[C@H](C(=O)N[C@@H](CC(N)=O)C(=O)N[C@H](C(=O)NCC(=O)N[C@@H](CO)C(=O)NCC(=O)N[C@H](C(=O)N1CCC[C@H]1C(N)=O)[C@@H](C)O)[C@@H](C)O)[C@@H](C)O)[C@@H](C)O [standard salmon calcitonin, Salmon calcitonin]","greater than 4,000 IU/mg",–
"(1,7-α-L-aminosuberic acid)eel calcitonin",–,about 3400 IU/mg.
eel calcitonin [synthetic eel calcitonin],–,around 4300 IU/mg.
